Measurements from PMC9914026, “Identification of a Novel ACE Inhibitory Hexapeptide from Camellia Seed Cake and Evaluation of Its Stability” (Foods, 2023).
pIC50: −log10 of the molar value. Peptide text beside a SMILES is read from it.

Columns and labels:
[1] = biological target: T1, Angiotensin I-converting enzyme (ACE) from rabbit lungs (Oryctolagus cuniculus, UniProt P12822); test: Stability after in vitro treatment with digestive enzymes (pepsin, trypsin); format: in vitro ADME; settings: 0.4 mg/mL, 2 h, read-out ACE inhibition rate, n = 3
T1 construct: Angiotensin I-converting enzyme (ACE) from rabbit lungs (0.1 U); purchased Sigma-Aldrich (St. Louis, MO, USA); host or cells: rabbit lung tissue
T1 sequence (P12822 34-1310): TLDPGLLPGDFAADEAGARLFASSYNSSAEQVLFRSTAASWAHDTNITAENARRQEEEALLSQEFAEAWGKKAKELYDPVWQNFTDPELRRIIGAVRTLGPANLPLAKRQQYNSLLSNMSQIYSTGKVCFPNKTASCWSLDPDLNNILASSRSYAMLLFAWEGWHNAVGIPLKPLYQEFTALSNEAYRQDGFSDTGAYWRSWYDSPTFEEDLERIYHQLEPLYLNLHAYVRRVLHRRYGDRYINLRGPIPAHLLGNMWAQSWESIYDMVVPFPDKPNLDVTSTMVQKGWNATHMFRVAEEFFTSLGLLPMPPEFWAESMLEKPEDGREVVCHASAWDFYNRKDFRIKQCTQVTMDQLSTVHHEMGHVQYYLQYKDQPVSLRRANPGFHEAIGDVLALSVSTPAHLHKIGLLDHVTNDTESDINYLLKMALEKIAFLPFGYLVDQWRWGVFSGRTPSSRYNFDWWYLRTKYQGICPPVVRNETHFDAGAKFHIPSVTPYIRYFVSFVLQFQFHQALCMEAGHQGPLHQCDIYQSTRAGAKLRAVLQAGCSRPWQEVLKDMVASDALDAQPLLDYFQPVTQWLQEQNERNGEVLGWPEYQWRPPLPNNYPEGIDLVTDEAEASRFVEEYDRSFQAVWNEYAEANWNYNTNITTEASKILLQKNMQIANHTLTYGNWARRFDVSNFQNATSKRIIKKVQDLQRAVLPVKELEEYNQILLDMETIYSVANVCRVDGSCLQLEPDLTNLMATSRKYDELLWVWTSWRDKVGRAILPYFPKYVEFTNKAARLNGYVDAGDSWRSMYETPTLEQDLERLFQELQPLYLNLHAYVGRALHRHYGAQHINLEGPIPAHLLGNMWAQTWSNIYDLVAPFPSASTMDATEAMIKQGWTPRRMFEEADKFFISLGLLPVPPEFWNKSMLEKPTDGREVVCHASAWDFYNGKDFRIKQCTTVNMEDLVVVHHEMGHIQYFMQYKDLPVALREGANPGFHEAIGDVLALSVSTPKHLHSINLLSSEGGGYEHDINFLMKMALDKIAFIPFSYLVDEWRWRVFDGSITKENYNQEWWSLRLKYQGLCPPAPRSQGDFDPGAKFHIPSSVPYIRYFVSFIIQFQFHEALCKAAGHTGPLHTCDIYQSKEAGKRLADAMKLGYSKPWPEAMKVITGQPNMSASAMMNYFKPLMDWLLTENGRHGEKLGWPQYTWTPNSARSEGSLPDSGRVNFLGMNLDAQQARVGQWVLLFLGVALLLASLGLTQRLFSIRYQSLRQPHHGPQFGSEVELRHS
Method: (§1) The ACE inhibition rate was determined using High-Performance Liquid Chromatography (HPLC). In summary, 60 μL of HHL (2.5 mM) and 20 μL of samples were mixed and incubated at 37 °C for 5 min before 40 μL of ACE (0.05 U/mL) was added. The mixture was incubated at 37 °C for 1 h. Finally, the reaction was terminated by adding 120 μL of HCl solution (1 mol/L). The content of HA in the reaction system was detected by a PITC pre-column derivatization HPLC (Shimadzu LC-20AT) with a column C18 Hypersil ODS2 (4.6 mm×250 mm, 5 μm) at 228 nm. Isocratic elution was processed with the acetonitrile-water (volume ratio 1:3, each containing 0.1% TFA) solution at a constant flow rate of 1 mL/min. The ACE inhibition rate (%) was calculated based on the following formula:ACE inhibition rate (%) = [(A0 − A1) / A0] × 100%(4) where A0 and A1 equal the HA peak areas of the blank control and sample, respectively.
The stability of VVVPQN after in vitro treatment with digestive enzymes was carried out by the method of Chai with some modifications. Briefly, in a water bath at 37 °C, VVVPQN (0.4 mg/mL) was first digested with 2% (w/w) pepsin at pH 2.0 for 2 h. The pH was then adjusted to 7.0 before trypsin was added at a 1:50 enzyme to substrate ratio. […] The stability of VVVPQN was evaluated by comparing the ACE inhibition rate before and after the digestion.

[2] = biological target: T1, Angiotensin I-converting enzyme (ACE) from rabbit lungs; test: ACE inhibitory activity (HHL substrate, HPLC of hippuric acid); format: biochemical
From the text: Camellia seeds were purchased from Quzhou City, Zhejiang Province. Angiotensin I-converting enzyme (ACE) from rabbit lungs (0.1 U) (Table A1), ACE substrate hippuryl-histidyl-leucine (HHL) and hippuric acid (HA) standards were purchased from Sigma-Aldrich (St. Louis, MO, USA). Neutral protease (50,000 U/g), alkaline protease (200,000 U/g), papain (800,000 U/g), trypsin (250,000 U/g), and Sephadex G-25 were purchased from Beijing Solarbio Science & Technology Co., Ltd. (Beijing, China). All other chemicals used were of analytical grade.
as §1, with “The ACE inhibition rate (%) was calculated based on the following formula:ACE inhibition rate (%) = [(A0 − A1) / A0] × 100%(4) where A0 and A1 equal the HA peak areas of the blank control and sample, respectively.” left out

Change of ACE inhibitory activity after simulated gastric digestion ([1]; 2% (w/w) pepsin, pH 2.0, 37 °C): decreased significantly | Change of ACE inhibitory activity after further simulated intestinal digestion ([1]; after pepsin: trypsin 1:50 enzyme to substrate, pH 7.0, 37 °C): did not change significantly | pIC50 ([2]; from regression equation y = 23.595 ln(x) + 98.175): 3.70 | ACE inhibitory activity ([2]; synthetic peptide 0.5 mg/mL, HHL 2.5 mM, ACE 0.05 U/mL, 37 °C 1 h, HPLC 228 nm, mean, n = 3): 80.46%
SMILES: CC(C)[C@H](N)C(=O)N[C@H](C(=O)N[C@H](C(=O)N1CCC[C@H]1C(=O)N[C@@H](CCC(N)=O)C(=O)N[C@@H](CC(N)=O)C(=O)O)C(C)C)C(C)C [VVVPQN, Val-Val-Val-Pro-Gln-Asn] (H-VVVPQN-OH)
